Measured values reported in ChEMBL document CHEMBL1159269, “Mechanistic evaluation of new plant-derived compounds that inhibit HIV-1 reverse transcriptase” (J Nat Prod, 1995).

How the values were obtained:
LNCaP = test: Cytotoxicity against human LNCAP cells; type: functional; conditions: read-out: ED50 (the source's name)
[1] = biological target: Human immunodeficiency virus type 1 reverse transcriptase (Human immunodeficiency virus 1) (UniProt Q72547); test: Inhibition of HIV1 reverse transcriptase p66/p51 at 50 ug/ml in presence of 250 ug/ml BSA
[2] = biological target: T1, Human immunodeficiency virus type 1 reverse transcriptase (Human immunodeficiency virus 1, UniProt Q72547); test: Inhibition of HIV1 reverse transcriptase p66/p51 using template-primer [oligo(dT)12-18 + poly(rA)] by mixed type competitive inhibition assay
[3] = Inhibition of RNA polymerase
DNA = test: Binding affinity to calf thymus DNA assessed as inhibition of DNA peak at 260 nm wavelength at 250 ug/ml by HPLC; type: nucleic-acid assay; conditions: Bos taurus
[4] = Inhibition of HIV2 reverse transcriptase p66/p51; set-up: species or system Human immunodeficiency virus 2
[5] = biological target: T1, Human immunodeficiency virus type 1 reverse transcriptase; test: Inhibition of HIV1 reverse transcriptase p66/p51
Lu1 = test: Cytotoxicity against human Lu1 cells; type: functional; conditions: read-out: ED50 (the source's name)
[6] = Inhibition of AMV reverse transcriptase; set-up: species or system Avian myeloblastosis virus
[7] = biological target: Human immunodeficiency virus type 1 reverse transcriptase (Human immunodeficiency virus 1) (UniProt Q72547); test: Inhibition of HIV1 reverse transcriptase p66/p51 at 50 ug/ml in presence of 2.5 ug/ml BSA
[8] = biological target: Human immunodeficiency virus type 1 reverse transcriptase (Human immunodeficiency virus 1) (UniProt Q72547); test: Inhibition of HIV1 reverse transcriptase p66/p51 at 50 ug/ml in presence of 1000 ug/ml BSA
[9] = biological target: T1, Human immunodeficiency virus type 1 reverse transcriptase; test: Inhibition of HIV1 reverse transcriptase p66/p51 using TTP substrate by non-competitive inhibition type assay
DNA polymerase beta = DNA polymerase beta (Homo sapiens, UniProt P06746); test: Inhibition of DNA polymerase beta
ZR-75-1 = test: Cytotoxicity against human ZR-75-1 cells; type: functional; conditions: read-out: ED50 (the source's name)
KB = test: Cytotoxicity against human KB cells; type: functional; conditions: read-out: ED50 (the source's name)
[10] = biological target: Human immunodeficiency virus type 1 reverse transcriptase (Human immunodeficiency virus 1) (UniProt Q72547); test: Inhibition of HIV1 reverse transcriptase p66/p51 at 200 ug/ml in presence of 250 ug/ml BSA
[11] = biological target: T1, Human immunodeficiency virus type 1 reverse transcriptase; test: Inhibition of HIV1 reverse transcriptase p66/p51 using template-primer [oligo(dT)12-18 + poly(rA)] by competitive type inhibition assay
[12] = biological target: T1, Human immunodeficiency virus type 1 reverse transcriptase; test: Inhibition of HIV1 reverse transcriptase p66/p51 using TTP substrate by mixed type competitive inhibition assay
[13] = biological target: Human immunodeficiency virus type 1 reverse transcriptase (Human immunodeficiency virus 1) (UniProt Q72547); test: Inhibition of HIV1 reverse transcriptase p66/p51 at 200 ug/ml in presence of 1000 ug/ml BSA

C=C1C(=O)O[C@@H](CCCCCCCCCCCCC)[C@@H]1C(=O)O [PROTOLICHESTERINIC ACID]
EC50 (LNCaP): > 20 µg/mL | inhibition [1]: 52% | Ki [2]: 10 µM | IC50 [3]: 92.8 µM | inhibition (DNA): 1.3% | IC50 [4]: 29.6 µM | IC50 [5]: 24.3 µM | EC50 (Lu1): > 20 µg/mL | IC50 [6]: 21.9 µM | inhibition [7]: 99% | inhibition [8]: 19% | Ki [9]: 7.1 µM | IC50 (DNA polymerase beta): 7.4 µM | EC50 (ZR-75-1): > 20 µg/mL | EC50 (KB): > 20 µg/mL

CC1=C(C#C/C(C)=C/C=C/C(C)=C/C=C/C=C(C)/C=C/C=C(\C)C(=O)C[C@@]23O[C@]2(C)C[C@@H](O)CC3(C)C)C(C)(C)C[C@H](O)C1 [HALOCYNTHIAXANTHIN]
IC50 [5]: 7.2 µM

COc1cc(O)c2c(=O)c3c(O)c(-c4c(O)c([C@@H]5O[C@H](CO)[C@@H](O)[C@H](O)[C@H]5O)c(O)c5c(=O)cc(-c6ccc(O)c(O)c6)oc45)cc(O)c3oc2c1
EC50 (LNCaP): > 20 µg/mL | inhibition [10]: 89% | IC50 [3]: 272 µM | inhibition (DNA): 71% | IC50 [4]: 56.6 µM | Ki [11]: 6.7 µM | IC50 [5]: 42.9 µM | EC50 (Lu1): > 20 µg/mL | IC50 [6]: 81 µM | Ki [12]: 7.1 µM | inhibition [13]: 82% | IC50 (DNA polymerase beta): 57.7 µM | EC50 (ZR-75-1): > 20 µg/mL | EC50 (KB): > 20 µg/mL

Cc1cn([C@H]2C[C@H](N=[N+]=[N-])[C@@H](CO)O2)c(=O)[nH]c1=O [ZIDOVUDINE]
IC50 [3]: > 20 µM | IC50 [4]: 0.2 µM | IC50 [6]: 0.43 µM | IC50 (DNA polymerase beta): > 20 µM

COc1cc2c(ccc3c4cc(OC)c(OC)cc4c[n+](C)c23)cc1O
inhibition (DNA): 100%

CC1(C)CC[C@]2(C(=O)O)CC=C3[C@]4(C)CC[C@H]5C(C)(C)[C@@H](OC(=O)c6ccc(O)cc6)C[C@@H](O)[C@]5(C)[C@H]4CC[C@@]3(C)[C@H]2C1
EC50 (LNCaP): > 20 µg/mL | inhibition [1]: 19% | Ki [2]: 6.7 µM | IC50 [3]: > 338 µM | inhibition (DNA): 0% | IC50 [4]: 59 µM | EC50 (Lu1): > 20 µg/mL | IC50 [6]: 15.1 µM | inhibition [7]: 94% | inhibition [8]: 0.8% | Ki [9]: 8.3 µM | IC50 (DNA polymerase beta): 2.2 µM | EC50 (ZR-75-1): > 20 µg/mL | EC50 (KB): > 20 µg/mL

CCCc1cc(=O)oc2c3c(c4c(c12)OC(C)(C)C=C4)O[C@H](C)[C@@H](C)[C@@H]3O [CALANOLIDE A]
IC50 [5]: 1 µM
